Data published in PMC7170507, “Biosynthesis of depsipeptides with a 3-hydroxybenzoate moiety and selective anticancer activities involves a chorismatase” (The Journal of Biological Chemistry, 2020).

What was measured:
A549 = assay: cells; set-up: species or system human cancer cell lines; CCK8 cell viability assay, absorbance at 450 nm; settings: Homo sapiens, 72 h
Procedure: (§1) Anticancer activities were evaluated by using human lung cancer cells PC9, human colorectal cancer cells Sw620, and human melanoma cells A375. Toxicity study was conducted by using three types of normal cells, 16HBE (an immortalized human bronchial epithelial cells), NCM460 (a normal human colon mucosal epithelial cell line), and HaCaT (a spontaneously immortalized keratinocyte cell line from adult human skin). All the cell lines were obtained from the Shanghai Institute of Cell Biology, Chinese Academy of Sciences. The cell cultivation media (Gibco) were supplemented with 10% fetal bovine serum, 100 units/ml penicillin, and 100 μg/ml streptomycin. The cells were maintained in a humidified atmosphere with 5% CO2 at 37 °C. Half-maximal inhibitory concentration (IC50) was determined by a CCK8 assay (Dojindo, Tokyo, Japan). Briefly, the cells were seeded in 96-well plates at a density of 3 × 10^3 cells/well and incubated for 24 h at 37 °C. Then the cells were treated with various concentrations of compound and incubated for 72 h. Afterward, 10 μl of CCK8 reagent was added to each well before a further incubation for 0.5–4.0 h at 37 °C. Finally, the absorbance of each well in the 96-well plate was measured at 450 nm using microplate reader. Because the 3-FAS moiety has been proposed to be the pharmacophore of anticancer activities in NATs ([3], [11]), we wished to know whether compounds 1–4 with the alternative 3-HBA moiety, instead of 3-FAS, would retain anticancer activities. The carcinoma cell lines of human lung (PC9), colon (Sw620), and melanoma (A375) were firstly selected to evaluate the activities of them, using as positive control the chemotherapeutic drug cisplatin. […] This is consistent with the activities previously shown for unantimycin A, which structurally differs from 1 at the C4 alkyl group and which has shown moderate cytotoxicity (IC50 = ∼10 μM) against human cervix epidermoid carcinoma, promyelocytic leukemia, and sarcoma cell lines ([13]). […] Further work will be required to establish convincingly that the apparently selective anticancer activities of 1–4 are endowed by the absence of binding to the quinone reduction site of the cytochrome bc1 complex, which makes antimycin A lethal to the mitochondrial respiratory chain ([12], [20]). Moreover, the broad-spectrum anticancer activities of 1–4 were evaluated by using six other carcinoma cell lines (Table S9).

HepG2 = assay: cells; set-up: species or system human cancer cell lines; CCK8 cell viability assay, absorbance at 450 nm; settings: Homo sapiens, 72 h
Procedure: as §1

SGC7901 = assay: cells; set-up: species or system human cancer cell lines; CCK8 cell viability assay, absorbance at 450 nm; settings: Homo sapiens, SGC-7901, 72 h
Procedure: as §1

HT29 = assay: cells; set-up: species or system human cancer cell lines; CCK8 cell viability assay, absorbance at 450 nm; settings: Homo sapiens, HT-29, 72 h
Procedure: as §1

Hela = assay: cells; set-up: species or system human cancer cell lines; CCK8 cell viability assay, absorbance at 450 nm; settings: Homo sapiens, 72 h
Procedure: as §1

HCT-8 = assay: cells; set-up: species or system human cancer cell lines; CCK8 cell viability assay, absorbance at 450 nm; settings: Homo sapiens, 72 h
Procedure: as §1

[1] = tested on: T1, C=C(O[C@@H]1C=C(C(=O)O)C=C[C@H]1O)C(=O)O; assay: purified protein; assay type: biochemical, Streptomyces conglobatus; settings: 50 mM Tris-HCl pH 8.0, 0.5 μM enzyme, 50-300 μM chorismate, 0.5 mM NADH, LDH
T1 construct: catalytic Glu-325

| Compound | IC50 (A549) | IC50 (HepG2) | IC50 (SGC7901) | IC50 (HT29) | IC50 (Hela) | IC50 (HCT-8) | Km [1] | kcat [1] |
| --- | --- | --- | --- | --- | --- | --- | --- | --- |
| CCC(C)C1OC(=O)C(C)(C)C(O)C(Cc2ccccc2)OC(=O)C(C(C)C)OC(=O)C(NC(=O)c2cccc(O)c2)C(C)OC1=O (centres unmarked) [compound 2, 2] | 2.99 ± 0.02 µM | 15.2 ± 0.7 µM | 9.57 ± 0.22 µM | 14.9 ± 0.3 µM | 15.3 ± 1.5 µM | 9.23 ± 0.16 µM |  |  |
| Nat-hyg5 (Streptomyces conglobatus) |  |  |  |  |  |  | 54 ± 6 µM | 0.084 ± 0.003 s⁻¹ |

The next lines start with results.

| IC50 (A549) | IC50 (HepG2) | IC50 (SGC7901) | IC50 (HT29) | IC50 (Hela) | IC50 (HCT-8) | Compound | Km [1] | kcat [1] |
| --- | --- | --- | --- | --- | --- | --- | --- | --- |
| 7.7 ± 0.07 µM | 13.4 ± 0.1 µM | 11.9 ± 0.1 µM | 19.4 ± 0.1 µM | 18.2 ± 0.2 µM | 17.9 ± 1.4 µM | CCC(C)C1OC(=O)C(C)(C)C(=O)C(Cc2ccccc2)OC(=O)C(C(C)C)OC(=O)C(NC(=O)c2cccc(O)c2)C(C)OC1=O (centres unmarked) [compound 1, unantimycin B] |  |  |
| 2.97 ± 0.01 µM | 18.3 ± 0.7 µM | 10.1 ± 0.3 µM | 17.2 ± 0.8 µM | 23.6 ± 0.5 µM | 8.95 ± 0.13 µM | CC(C)C1OC(=O)C(NC(=O)c2cccc(O)c2)C(C)OC(=O)C(C(C)C)OC(=O)C(C)(C)C(O)C(Cc2ccccc2)OC1=O (centres unmarked) [compound 4, 4] |  |  |
| 2.32 ± 0.01 µM | 17.5 ± 0.6 µM | 6.63 ± 0.17 µM | 17.6 ± 0.9 µM | 23 ± 0.4 µM | 10.9 ± 0.8 µM | CC(C)C1OC(=O)C(NC(=O)c2cccc(O)c2)C(C)OC(=O)C(C(C)C)OC(=O)C(C)(C)C(=O)C(Cc2ccccc2)OC1=O (centres unmarked) [compound 3, 3] |  |  |
